According to PubChem BioAssay AID2305 (GlaxoSmithKline (GSK), 2010):
Values joined by “and” are separate entries in the source; they are usually repeats but may differ in a detail not shown here. Identical values can stand only once.

tested on: P. falciparum 3D7 growth, pLDH absorbance; test: blood-stage malaria parasite growth potency – strain 3D7, dose response (AID 2305)

Row | Structure (SMILES) | IC50
1 | COc1ccc2nccc([C@@H](O)CN3CCC(NC(=O)/C=C/c4c[nH]c5c(C)cccc45)CC3)c2c1 | 130 nM
2 | CCCCCN1CCCC(CNS(=O)(=O)c2cccc(C(=O)Nc3ccc(C(F)(F)F)cc3)c2)C1 (stereo not drawn) | 830 nM
3 | Cc1nc(NCc2ccccc2)cc(NCC(O)c2ccc(O)cc2)n1 (stereo not drawn) | 1230 nM
4 | OC1CCCN(Cc2ccc(-c3ccc(-c4nc5ccc(F)cc5[nH]4)cc3)cc2)C1 (stereo not drawn) | 850 nM
5 | CS(=O)(=O)NCCCNCc1ccc(-c2ccc(-c3nc4ccc(F)cc4[nH]3)cc2)cc1 | 930 nM
6 | COc1ccc(NS(=O)(=O)c2ccccc2Br)cc1N1CCN(C)CC1 | 970 nM
7 | COc1ccccc1N1CCN(C(C(=O)NCc2cccc(F)c2)c2ccc(C)cc2)CC1 (stereo not drawn) | 890 nM
8 | CN1CCC(N(Cc2ccc(-c3ccc(C(F)(F)F)cc3)cc2)C(=O)Cn2c(SCc3cccc(F)c3F)cc(=O)c3c2CCC3)CC1 | 160 nM
9 | CC(=O)N[C@H](C(=O)Nc1ccc(-c2cccc(-c3nc4c(C)cccc4[nH]3)c2)cc1)C(C)C | 1090 nM
10 | C=CCc1ccc(C2CCN(CCCCNC(=O)c3ccc(NC(=O)c4ccc(Cl)cc4)cc3)CC2)cc1 | 1120 nM
11 | O=C(Nc1ccc(O)c(-c2nc3ccccc3[nH]2)c1)c1ccc([N+](=O)[O-])cc1 | 320 nM
12 | COc1ccccc1-c1nc2nc(N)nc(N)c2nc1-c1ccccc1OC | 1250 nM
13 | CCNc1cc(C)nc(Nc2ccccc2)n1 | 880 nM
14 | Cc1[nH]nc2ccc(-c3cc(OC[C@@H](N)Cc4ccccc4)cnc3-c3ccc(OCc4cccc(F)c4)cc3)cc12 | 730 nM
15 | O=C(/C=C/c1ccc(Cl)c(Cl)c1)NCCCCCN1CCC(c2c[nH]c3ccc(O)cc23)CC1 | 890 nM
16 | COCC(=O)N(Cc1cccc(-c2ccc(CNCCc3ccccc3)cc2)c1)C1CCN(Cc2ccccc2)CC1 | 1100 nM
17 | CC(C)(C)NS(=O)(=O)c1cc(C(=O)N2CCC(CCN3CCC(O)(c4cccc(C(F)(F)F)c4)CC3)(c3cccc(F)c3)CC2)c(Cl)cc1F | 860 nM
18 | CN(C)CC(=O)Nc1cccc(Nc2nccc(NCC(O)c3ccccc3)n2)c1 (stereo not drawn) | 980 nM
19 | COc1cc(Cc2cnc(N)nc2N)cc(OCCCCCCN2C(=O)c3ccccc3C2=O)c1OC | 1100 nM
20 | OC(c1cc(C(F)(F)F)nc2c(C(F)(F)F)cccc12)C1CCCCN1 (stereo not drawn) | 70 nM
21 | Cc1cc(O)c(CN(C)Cc2ccc(N(C)C)cc2)cc1C(C)C | 550 nM
22 | CN(C)c1ccc(-c2csc(C(=O)NC3CCN(CCC(C)(C)C)C3)c2)cc1 (stereo not drawn) | 970 nM
23 | COc1ccc(CNCC2CCC(CNCCc3ccccc3)CC2)cc1Cl (stereo not drawn) | 790 nM
24 | N#CCCN1CCN(Cc2ccc(-c3cccc(-c4nc5ccc(F)cc5[nH]4)c3)cc2)CC1 | 970 nM

Row | Structure (SMILES) | IC50
25 | O=C(CCc1cnc[nH]1)Nc1cccc(-c2cccc(-c3nc4ccccc4[nH]3)c2)c1 | 660 nM
26 | COc1ccc(-c2csc(C(=O)NC3CCC(N4CCC(c5ccccc5C)CC4)CC3)c2)cc1 (stereo not drawn) | 380 nM
27 | O=C(Nc1cc(F)cc(-c2cccnc2)c1)c1ccc2c(=O)n(Cc3ccccc3)cnc2c1 | 1330 nM
28 | C=C(C)C1CC=C(CN2CCCC(n3ccc4cc(NC(=O)c5ccco5)ccc43)CC2)CC1 (stereo not drawn) | 750 nM
29 | CCOc1cc(C)ccc1C1CCN(CCCCNC(=O)c2nc(-c3ccc(C(F)(F)F)cc3)[nH]c2C)CC1 | 730 nM
30 | O=c1cc(NCCNCc2cccc(-c3ccccc3)c2)[nH]c2ccccc12 | 1030 nM
31 | FC(F)(F)c1ccc2nc(-c3ccc(-c4ccc(CNCc5ccccc5)cc4)cc3)[nH]c2c1 | 140 nM
32 | O=C(NNC(=O)c1ccc(CCN2CCC(c3nc(COCC(F)(F)F)c(-c4ccc(F)cc4)o3)CC2)cc1)Nc1ccc(Oc2ccccc2)cc1 | 710 nM
33 | O=c1[nH]c(NCCCNCc2cc3c(Cl)cc(Cl)cc3[nH]2)nc2ccsc12 | 1120 nM
34 | COc1ccc2nc(-c3ccc(C(=O)NCCCN4CCN(c5cc(Cl)ccc5OC)CC4)cc3)[nH]c2c1 | 770 nM
35 | O=C(NCC1CN(Cc2ccc(N3CCCC3)o2)CCCO1)c1ccc2c(c1)OCO2 (stereo not drawn) | 840 nM
36 | O=C(NCCN1CCCC1)c1cccc(-c2ccc(-c3nc4ccc(C(F)(F)F)cc4[nH]3)cc2)c1 | 750 nM
37 | CC[C@H]1CN2CC[C@H]1C[C@H]2[C@H](O)c1cc(-c2ccccc2C(F)(F)F)nc2ccc(OC)cc12 | 230 nM
38 | O=C1Nc2cccc3c2C1(CCCCN1CCC(c2cc4ccncc4[nH]2)CC1)CCC3 (stereo not drawn) | 790 nM and 910 nM
39 | O=C(Cn1c(CCc2cccc(F)c2F)nc(=O)c2ccccc21)N(CCCN1CCCC1)Cc1ccc(-c2ccc(C(F)(F)F)cc2)cc1 | 940 nM
40 | Cn1nc(-c2ccccc2F)c2cc(C(=O)NC3CCN(Cc4ccccc4)CC3)sc21 | 790 nM
41 | CC(C)NC(=O)c1cccc(-c2ccc(OCCN3CCCC3c3cc4ccccc4[nH]3)cc2)c1 (stereo not drawn) | 960 nM
42 | CC(C)CN(Cc1c(O)ccc2[nH]c(-c3ccc(F)cc3F)nc12)CC(C)C | 800 nM
43 | OC(CNc1ccnc(Nc2cccc(CCN3CCOCC3)c2)n1)c1ccccc1 (stereo not drawn) | 590 nM
44 | CC1(C)N=C(N)N=C(N)N1OCCCOc1cccc(C(=O)O)c1 | 40 nM
45 | O=C(Nc1ccc(Cl)c(C(F)(F)F)c1)NC1CCN(CCCCCNC(=O)[C@@H]2C[C@H]2c2ccc(Cl)c(Cl)c2)CC1 | 680 nM
46 | COc1ccc2nccc([C@@H](O)CN3CCC(NCc4cc5sccc5nc4C(F)(F)F)CC3)c2c1 | 910 nM
47 | COc1ccc2nccc([C@@H](O)CN3CCC(NCc4ccc5c(c4)NC(=O)CS5)CC3)c2n1 | 750 nM
48 | CS(=O)(=O)c1ccc(-c2cncc(Nc3cccc([N+](=O)[O-])c3)c2)cc1 | 770 nM

Row | Structure (SMILES) | IC50
49 | O=C(CCc1cnc[nH]1)Nc1cccc(-c2ccc(-c3nc4ccccc4[nH]3)cc2)c1 | 650 nM
50 | COc1cccc(OCC2CCCN(CCCCNC(=O)c3ccc(NC(=O)c4ccc(Cl)cc4)cc3)C2)c1 (stereo not drawn) | 750 nM
51 | O=C(NCc1ccc(F)cc1)Nc1ccc(-c2cccc(-c3nc4ccc(F)cc4[nH]3)c2)cc1 | 1120 nM
52 | CCOC(=O)C(=CNc1ccc(Cc2cnc(N)nc2N)cc1CC)C(=O)OCC | 1140 nM
53 | CCN(CC)CCOc1c(Cl)cc(Cl)cc1CNCCCNc1cc(=O)c2ccccc2[nH]1 | 870 nM
54 | COC1(C)Oc2ccc3cccc([N+](=O)[O-])c3c2C1=O (stereo not drawn) | 630 nM
55 | CCCCCCN1CCCN(Cc2ccc(C(=O)Nc3ccc(C(C)C)cc3)cc2)CC1 | 830 nM
56 | O=C(/C=C/c1ccc(Cl)cc1)Nc1ccc2nc(CN3CCCC3)ccc2c1 | 80 nM
57 | Cc1ccccc1C1CCN(C2CCC(NC(=O)/C=C/c3cc(F)ccc3C(F)(F)F)CC2)CC1 (stereo not drawn) | 950 nM
58 | CS(=O)(=O)c1cc2c(Nc3ccc(N4CCOCC4)cc3)c(C(N)=O)cnc2cc1Br | 250 nM
59 | CC(C)Cn1cc(C2CCN(CCN3CCC(CNC(=O)c4ccc(-c5ccc(C#N)cc5)cc4)CC3)CC2)c2ccccc21 | 790 nM
60 | CC(C)(CNC(=O)C1CCN(CCOc2ccc(F)c(F)c2)CC1)c1nc(-c2ccc(Cl)c(O)c2)c(-c2ccncc2)[nH]1 | 320 nM
61 | O=C(NC1CCN(CCN2CCC(c3cn(CCO)c4ccccc34)CC2)CC1)c1ccc(-c2ccc(C(F)(F)F)cc2)cc1 | 740 nM
62 | O=C(Nc1cccc(-c2ccc(-c3nc4ccccc4[nH]3)cc2)c1)Nc1ccc(F)c(F)c1F | 240 nM
63 | COc1cccc(OC)c1-c1ccccc1NC(=O)N1CCCc2cc(C)ccc21 | 820 nM
64 | CC(=O)N(C)c1ccc(C(=O)Nc2cccc(-c3cccc(-c4nc5ccc(C(F)(F)F)cc5[nH]4)c3)c2)cc1 | 310 nM
65 | O=c1c2c([nH]c3cc(Cl)ccc13)CCCC2 | 810 nM
66 | O=C(Cn1c(CCc2cccc(F)c2F)cc(=O)c2ccccc21)N(Cc1ccc(-c2ccc(C(F)(F)F)cc2)cc1)C1CCN(CCO)CC1 | 1320 nM
67 | COc1ccc2nccc([C@@H](O)CN3CCC(NCc4[nH]c5ccccc5c4F)CC3)c2c1 | 250 nM
68 | CCCC1(NC[C@@H](O)[C@H](Cc2ccccc2)NC(=O)c2cc(NCC)cc(N3CCCCS3(=O)=O)c2)CCC1 | 720 nM
69 | Nc1nc2ccc(S(=O)(=O)Nc3ccc(C(=O)N[C@@H](CCC(=O)O)C(=O)O)c(F)c3)cc2c(=O)[nH]1 | 820 nM
70 | CC(=O)Nc1cccc(Nc2nccc(Nc3ccc(Oc4ccccc4)cc3)n2)c1 | 750 nM
71 | O=C(Cc1cnc[nH]1)Nc1ccc(-c2ccc(-c3nc4ccc(C(F)(F)F)cc4[nH]3)s2)cc1 | 660 nM
72 | CCCCCCCN1CC[C@@H](CCC(O)c2ccnc3ccc(OC)cc23)[C@@H](CC)C1 (stereo partly drawn) | 750 nM

Row | Structure (SMILES) | IC50
73 | COc1cccc(CCNC(C)Cc2ccc(OCCCCOc3ccccc3)cc2)c1 (stereo not drawn) | 740 nM
74 | Cc1ccc(F)c(CN2CCC(N3CC(c4ccccc4)(c4ccccc4)OC3=O)CC2)c1Cl | 590 nM
75 | FC(F)(F)c1ccc(Nc2nnnc3ccccc23)cc1 | 690 nM
76 | CC[C@H]1CN2CC[C@@H]1C[C@H]2[C@H](O)c1cc(N2CCC(O)(c3ccc(Cl)cc3)CC2)nc2ccc(OC)cc12 | 70 nM
77 | CC(=O)Nc1ccc(C(=O)Nc2ccc(-c3cccc(-c4nc5ccc(C(F)(F)F)cc5[nH]4)c3)cc2)cn1 | 110 nM
78 | COc1cccc2c1CCN(CCN1CCC(NC(=O)c3ccc(-c4cccc(Cl)c4Cl)cc3)CC1)C2 | 700 nM
79 | NC(=NCC1CC1c1ccccc1)c1cccc(C(N)=NCC2CC2c2ccccc2)n1 (stereo not drawn) | 1760 nM
80 | Cc1c(F)cc(C(=O)NC2CC2)cc1-c1ccc2c(cnn2S(=O)(=O)c2ccc(Cl)s2)c1 | 390 nM
81 | COc1ccc2nc(C)cc(NN=Cc3cc(C)ccc3O)c2c1 | 140 nM
82 | N#Cc1ccc(NC(=O)Nc2ccc(OC(F)(F)F)cc2)cc1 | 820 nM
83 | CCOC(=O)c1ccc(N(CCCN(CCCN(c2ccc(C(=O)OCC)cc2)S(=O)(=O)c2ccc(C)cc2)CCc2ccc(O)cc2)S(=O)(=O)c2ccc(C)cc2)cc1 | 1050 nM
84 | COc1ccc(C2CCN(CCCNC(=O)c3ccc(NC(=O)c4ccc(Cl)cc4)cc3)CC2)c(OC)c1 | 760 nM
85 | Nc1c(Cl)cc(C(O)CNCCCCCOCCc2ccccc2)cc1C(F)(F)F (stereo not drawn) | 980 nM
86 | O=C(c1ccco1)N1CCN(c2nc(-c3ccc(Cl)cc3)nc3ccccc23)CC1 | 930 nM
87 | CC(C)c1cc(Oc2c(I)cc(CCNCc3ccccc3)cc2I)ccc1O | 540 nM
88 | O=C(NC1CCCC1)c1ccc(N2CCC(NCc3cccc(C(F)(F)F)c3)CC2)cc1 | 1330 nM
89 | COc1ccc(-c2cc(-c3nc4ccc(CN)cc4[nH]3)c(=O)n(C)c2)cc1OC | 1400 nM
90 | c1ccc(Oc2ccc(Nc3ccnc4cc(-c5ccc(CN6CCCCC6)o5)ccc34)cc2)nc1 | 330 nM
91 | CCOC(=O)CN1Cc2cc(NCc3ccc4ccc5nc(C)[nH]c(=O)c5c4c3)ccc2C1=O | 700 nM
92 | O=C(/C=C/c1ccc(Cl)c(Cl)c1)NCC1CCN(Cc2ccc(O)cc2)CC1 | 690 nM
93 | COc1ccc2cc(C(=O)NC3CCC(CCN4CCc5cc(C#N)ccc5C4)CC3)[nH]c2c1 (stereo not drawn) | 1010 nM
